14 compounds from patent US20210403435A1, “HERBICIDAL COMPOUNDS” (SYNGENTA CROP PROTECTION AG, priority 2018, published 2021) can be followed below.

Like-named read-outs stand apart in the source and are kept apart here.

Holding throughout (assay): Post-emergence efficacy, glasshouse, evaluated after 13 days
Holding throughout (assay type): in vivo

Assay [1] concerns Chenopodium album (CHEAL). Conditions: for pest or weed control at 500 g/ha: Chenopodium album, 312 h, read-out: Control of weed species CHEAL (100=total damage to plant; 0=no damage to plant). How it is done: (§1) Seeds of a variety of test species were sown in standard soil in pots. After cultivation for 14 days (post-emergence) under controlled conditions in a glasshouse (at 24/16° C., day/night; 14 hours light; 65% humidity), the plants were sprayed with an aqueous spray solution derived from the dissolution of the technical active ingredient formula (I) in a small amount of acetone and a special solvent and emulsifier mixture referred to as IF50 (11.12% Emulsogen EL360 TM+44.44% N-methylpyrrolidone+44.44% Dowanol DPM glycol ether), to create a 50 g/l solution which was then diluted to required concentration using 0.25% or 1% Empicol ESC70 (Sodium lauryl ether sulphate)+1% ammonium sulphate as diluent.
(§2) The test plants were then grown in a glasshouse under controlled conditions (at 24/16° C., day/night; 14 hours light; 65% humidity) and watered twice daily. After 13 days the test was evaluated (100=total damage to plant; 0=no damage to plant).
(§3) Ipomoea hederacea (IPOHE), Euphorbia heterophylla (EPHHL), Chenopodium album (CHEAL), Amaranthus palmeri (AMAPA), Lolium perenne (LOLPE), Digitaria sanguinalis (DIGSA), Eleusine indica (ELEIN), Echinochloa crus-galli (ECHCG), Setaria faberi (SETFA)

Assay [2] relates to Echinochloa crus-galli (ECHCG). Conditions: for pest or weed control at 500 g/ha: Echinochloa crus-galli, 312 h, read-out: Control of weed species ECHCG (100=total damage to plant; 0=no damage to plant). Here is the method: as §1, §2, §3
For assay [3], the system named is Ipomoea hederacea (IPOHE). Conditions: for pest or weed control at 500 g/ha: Ipomoea hederacea, 312 h, read-out: Control of weed species IPOHE (100=total damage to plant; 0=no damage to plant). Here is the method: as §1, §2, §3
For assay [4], the system named is Digitaria sanguinalis (DIGSA). The following applies: post-emergence application, 500 g/Ha, evaluated after 13 days; for pest or weed control at 500 g/ha: Digitaria sanguinalis, 312 h, read-out: Control of weed species DIGSA (100=total damage to plant; 0=no damage to plant). Here is the method:
as §1, §2, §3

The test system of the next assay is Setaria faberi (SETFA). The following applies: for pest or weed control at 500 g/ha: Setaria faberi, 312 h, read-out: Control of weed species SETFA (100=total damage to plant; 0=no damage to plant). Here is the method:
as §1, §2, §3

Assay [5] relates to Amaranthus palmeri (AMAPA). The following applies: for pest or weed control at 500 g/ha: Amaranthus palmeri, 312 h, read-out: Control of weed species AMAPA (100=total damage to plant; 0=no damage to plant). Here is the method:
as §1, §2, §3

The test system of a further assay is Lolium perenne (LOLPE). The following applies: for pest or weed control at 500 g/ha: Lolium perenne, 312 h, read-out: Control of weed species LOLPE (100=total damage to plant; 0=no damage to plant). Here is the method: as §1, §2, §3
In a further assay the test system is Eleusine indica (ELEIN). The following applies: for pest or weed control at 500 g/ha: Eleusine indica, 312 h, read-out: Control of weed species ELEIN (100=total damage to plant; 0=no damage to plant). How it is done:
as §1, §2, §3

Assay [6] concerns Euphorbia heterophylla (EPHHL). Conditions: Euphorbia heterophylla, 312 h, read-out: Control of weed species EPHHL (100=total damage to plant; 0=no damage to plant). Here is the method:
as §1, §2, §3

The mark [7] stands for this setting: post-emergence application, 500 g/Ha, evaluated after 13 days.

Take `O=C(NCCO)c1cc[n+](CCS(=O)(=O)[O-])nc1` [Compound A49]: the pest or weed control at 500 g/ha in [1] (setting [7]) was found to be 80%; in assay [2] (setting [7]), 80%; in assay [3] (setting [7]), 70%; in assay [4], 100%; in the assay with Setaria faberi (SETFA) (setting [7]), 90%; in [5] (setting [7]), 100%. Moreover, the pest or weed control at 500 g/ha in the assay on Lolium perenne (LOLPE) (setting [7]) was found to be 60%; with Eleusine indica (ELEIN) (setting [7]), 30%.

On to `CCCCNC(=O)c1cc[n+](CCC(=O)O)nc1` [Compound A45], for which the pest or weed control at 500 g/ha in assay [1] (setting [7]) came out at 90%; in assay [2] (setting [7]), 70%; in assay [3] (setting [7]), 30%; in assay [4] it was 70%; in the assay with Setaria faberi (SETFA) (setting [7]) it was 90%; in assay [5] (setting [7]), 80%. In addition, the pest or weed control at 500 g/ha came out at 60% with Lolium perenne (LOLPE) (setting [7]) and 80% in the assay with Eleusine indica (ELEIN) (setting [7]).

For the compound `CNC(=O)c1cc[n+](CCC(=O)O)nc1-c1ccccc1` [Compound A55], the pest or weed control at 500 g/ha was found to be 80% in assay [1] (setting [7]); 80% in assay [2] (setting [7]); 40% in assay [3] (setting [7]); 60% in assay [4]; 40% in the assay with Setaria faberi (SETFA) (setting [7]); 100% in [5] (setting [7]). Moreover, the pest or weed control at 500 g/ha was 0% in the assay with Lolium perenne (LOLPE) (setting [7]) and 30% in the assay with Eleusine indica (ELEIN) (setting [7]).

Take `CCNC(=O)c1cc[n+](CCP(=O)(O)O)nc1` [Compound A119]: the pest or weed control at 500 g/ha stood at 80% in assay [6] (setting [7]); 100% in [1] (setting [7]); 30% in assay [2] (setting [7]); 50% in assay [3] (setting [7]); 50% in the assay with Setaria faberi (SETFA) (setting [7]); 100% in assay [5] (setting [7]). The pest or weed control at 500 g/ha with Lolium perenne (LOLPE) (setting [7]) was 20%; in the assay on Eleusine indica (ELEIN) (setting [7]), 30%.

With `CC(C)N(C)C(=O)c1cc[n+](CCS(=O)(=O)O)nc1` [Compound A9], the pest or weed control at 500 g/ha came out at 90% in assay [1] (setting [7]); 30% in assay [2] (setting [7]); 30% in assay [3] (setting [7]); 50% in assay [4]; 60% in the assay on Setaria faberi (SETFA) (setting [7]); 90% in assay [5] (setting [7]). For the same compound, the pest or weed control at 500 g/ha in the assay on Lolium perenne (LOLPE) (setting [7]) amounted to 30%; with Eleusine indica (ELEIN) (setting [7]), 20%.

Regarding `O=C(O)CC[n+]1ccc(C(=O)NC2CS(=O)(=O)C2)cn1` [Compound A67], the pest or weed control at 500 g/ha in assay [1] (setting [7]) is 50%; in assay [2] (setting [7]) it was 100%; in [3] (setting [7]), 30%; in [4] it was 100%; with Setaria faberi (SETFA) (setting [7]), 100%; in [5] (setting [7]) it was 30%. In addition, the pest or weed control at 500 g/ha in the assay on Lolium perenne (LOLPE) (setting [7]) and with Eleusine indica (ELEIN) (setting [7]) was 90% each time.

For `CNC(=O)c1cc[n+](CCS(=O)(=O)[O-])nc1C` [Compound A56], the “Control of weed species CHEAL (100=total damage to plant; 0=no damage to plant)” value in [1] (setting [7]) is given as 90. The “Control of weed species ECHCG (100=total damage to plant; 0=no damage to plant)” value in assay [2] (setting [7]) is on record as 90. Besides, the “Control of weed species IPOHE (100=total damage to plant; 0=no damage to plant)” value in [3] (setting [7]) is on record as 30. Besides, the “Control of weed species DIGSA (100=total damage to plant; 0=no damage to plant)” value in [4] came to 80. In addition, the “Control of weed species SETFA (100=total damage to plant; 0=no damage to plant)” value with Setaria faberi (SETFA) (setting [7]) is 60. Further, the “Control of weed species AMAPA (100=total damage to plant; 0=no damage to plant)” value in [5] (setting [7]) came out at 100. In addition, the “Control of weed species LOLPE (100=total damage to plant; 0=no damage to plant)” value in the assay on Lolium perenne (LOLPE) (setting [7]) turned out to be 40. Besides, in the assay on Eleusine indica (ELEIN) (setting [7]), the “Control of weed species ELEIN (100=total damage to plant; 0=no damage to plant)” value was 60.

Regarding `CCNC(=O)c1cc[n+](CCS(=O)(=O)[O-])nc1` [Compound A48], the pest or weed control at 500 g/ha worked out at 70% in assay [2] (setting [7]); 80% in assay [3] (setting [7]); 90% in assay [4]; 90% in the assay with Setaria faberi (SETFA) (setting [7]); 90% in [5] (setting [7]); 70% in the assay with Lolium perenne (LOLPE) (setting [7]). In addition, in the assay on Eleusine indica (ELEIN) (setting [7]), the pest or weed control at 500 g/ha amounted to 100%.

With `CNC(=O)c1cc[n+](CCS(=O)(=O)[O-])nc1-c1ccccc1` [Compound A54], the pest or weed control at 500 g/ha was 70% in assay [1] (setting [7]); 40% in assay [2] (setting [7]); 10% in assay [3] (setting [7]); 60% in [4]; 20% in the assay with Setaria faberi (SETFA) (setting [7]); 80% in assay [5] (setting [7]). Also, the pest or weed control at 500 g/ha stood at 0% in the assay on Lolium perenne (LOLPE) (setting [7]) and 50% in the assay on Eleusine indica (ELEIN) (setting [7]).

As for `CC(=O)NNC(=O)c1cc[n+](CCC(=O)O)nc1` [Compound A105], the pest or weed control at 500 g/ha was 60% in [6] (setting [7]); 70% in assay [1] (setting [7]); 40% in assay [2] (setting [7]); 30% in assay [3] (setting [7]); 60% in the assay with Setaria faberi (SETFA) (setting [7]); 50% in assay [5] (setting [7]). In addition, the values for the pest or weed control at 500 g/ha in the assay with Lolium perenne (LOLPE) (setting [7]) and in the assay with Eleusine indica (ELEIN) (setting [7]) were 10% and 30%, respectively.

For the compound `CCNC(=O)c1cc[n+](C[C@H](N)C(=O)O)nc1` [Compound A121, [(1S)-1-carboxy-2-[4-(ethylcarbamoyl)pyridazin-1-ium-1-yl]ethyl]ammonium 2,2,2-trifluoroacetate], the pest or weed control at 500 g/ha in assay [6] (post-emergence) was determined as 30%; in [1] (post-emergence), 20%; in assay [2] (post-emergence) it was 10%; in assay [3] (post-emergence) it was 10%; in the assay with Setaria faberi (SETFA) (post-emergence), 10%; in [5] (post-emergence) it was 10%. In addition, the pest or weed control at 500 g/ha in the assay with Lolium perenne (LOLPE) (post-emergence) and in the assay with Eleusine indica (ELEIN) (post-emergence) was 10% each time.

As to `C#CC(C)(C)NC(=O)c1cc[n+](CCC(=O)O)nc1` [Compound A77], the pest or weed control at 500 g/ha in [6] (setting [7]) was 100%; in [1] (setting [7]), 90%; in [3] (setting [7]) it was 10%; in the assay on Setaria faberi (SETFA) (setting [7]) it was 100%; in assay [5] (setting [7]), 100%; in the assay on Lolium perenne (LOLPE) (setting [7]), 80%.

In the case of `O=C(O)CC[n+]1ccc(C(=O)NC2CCCC2)cn1` [Compound A58], the pest or weed control at 500 g/ha in assay [1] (setting [7]) was 60%; in [2] (setting [7]) it was 70%; in [3] (setting [7]), 30%; in assay [4] it was 90%; with Setaria faberi (SETFA) (setting [7]), 90%; in assay [5] (setting [7]), 70%. Besides, the pest or weed control at 500 g/ha in the assay with Lolium perenne (LOLPE) (setting [7]) and in the assay on Eleusine indica (ELEIN) (setting [7]) was 90% in each case.

As for `C#CC(C)NC(=O)c1cc[n+](CCC(=O)O)nc1` (centres unmarked) [Compound A78], the pest or weed control at 500 g/ha is 70% in [6] (setting [7]); 100% in assay [1] (setting [7]); 90% in assay [3] (setting [7]); 100% in the assay on Setaria faberi (SETFA) (setting [7]); 100% in assay [5] (setting [7]); 80% with Lolium perenne (LOLPE) (setting [7]).
